Data as given in ChEMBL document CHEMBL3046287, “Azoxystrobin resistance of French Mycosphaerella graminicola strains assessed by four in vitro bioassays and by screening of G143A substitution” (Crop Prot, 2010).
In brackets after ≈: the same amount, converted by molar mass.

What was measured:
Format in all cases: functional, organism-based
Zymoseptoria tritici [1] = assay: Antifungal activity against azoxystrobin-sensitive Zymoseptoria tritici T0466 carrying cytochrome-b G143 allele assessed as fungal colony perpendicular diameter changes after 10 days at 18 degC by spotting on PDA medium assay; conditions: T0466, 240 h
Zymoseptoria tritici [2] = assay: Antifungal activity against azoxystrobin-sensitive Zymoseptoria tritici T083 carrying cytochrome-b G143 allele assessed as fungal growth inhibition after 6 days at 20 degC by microplate without alamar blue assay; conditions: T083, 144 h
Zymoseptoria tritici [3] = assay: Antifungal activity against azoxystrobin-sensitive Zymoseptoria tritici IPO94269 carrying cytochrome-b G143 allele assessed as fungal growth inhibition after 6 days at 20 degC by microplate without alamar blue assay; conditions: IPO94269, 144 h
Zymoseptoria tritici [4] = assay: Antifungal activity against azoxystrobin-resistant Zymoseptoria tritici T0451 carrying cytochrome-b A143 allele assessed as inhibition of spore germination after 2 days at 18 degC by spotting on PDA medium assay; conditions: T0451, 48 h
Zymoseptoria tritici [5] = assay: Antifungal activity against azoxystrobin-sensitive Zymoseptoria tritici T0464 carrying cytochrome-b G143 allele assessed as inhibition of spore germination after 2 days at 18 degC by spotting on PDA medium assay; conditions: T0464, 48 h
Zymoseptoria tritici [6] = assay: Antifungal activity against azoxystrobin-resistant Zymoseptoria tritici T0485 carrying cytochrome-b A143 allele assessed as inhibition of spore germination after 2 days at 18 degC by spotting on PDA medium assay; conditions: T0485, 48 h
Zymoseptoria tritici [7] = assay: Antifungal activity against azoxystrobin-sensitive Zymoseptoria tritici IPO94269 carrying cytochrome-b G143 allele assessed as inhibition of spore germination after 2 days at 18 degC by spotting on PDA medium assay; conditions: IPO94269, 48 h
Zymoseptoria tritici [8] = assay: Antifungal activity against azoxystrobin-resistant Zymoseptoria tritici T0254 carrying cytochrome-b A143 allele assessed as fungal growth inhibition after 6 days at 20 degC by microplate without alamar blue assay; conditions: T0254, 144 h
Zymoseptoria tritici [9] = assay: Antifungal activity against azoxystrobin-sensitive Zymoseptoria tritici T0210 carrying cytochrome-b G143 allele assessed as inhibition of spore germination after 2 days at 18 degC by spotting on PDA medium assay; conditions: T0210, 48 h
Zymoseptoria tritici [10] = assay: Antifungal activity against azoxystrobin-sensitive Zymoseptoria tritici T0471 carrying cytochrome-b G143 allele assessed as fungal colony perpendicular diameter changes after 10 days at 18 degC by spotting on PDA medium assay; conditions: T0471, 240 h
Zymoseptoria tritici [11] = assay: Antifungal activity against azoxystrobin-sensitive Zymoseptoria tritici T0460 carrying cytochrome-b G143 allele assessed as fungal growth inhibition after 6 days at 20 degC by microplate without alamar blue assay; conditions: T0460, 144 h
Zymoseptoria tritici [12] = assay: Antifungal activity against azoxystrobin-sensitive Zymoseptoria tritici T0384 carrying cytochrome-b G143 allele assessed as fungal growth inhibition after 6 days at 20 degC by microplate without alamar blue assay; conditions: T0384, 144 h

CO/C=C(/C(=O)OC)c1ccccc1Oc1cc(Oc2ccccc2C#N)ncn1 [AZOXYSTROBIN]
IC50 (Zymoseptoria tritici [1]): 0.11 µg/mL (≈ 0.273 µM)
IC50 (Zymoseptoria tritici [2]): 0.5 µg/mL (≈ 1.24 µM)
IC50 (Zymoseptoria tritici [3]): 0.03 µg/mL (≈ 0.0744 µM)
IC50 (Zymoseptoria tritici [4]): 29.6 µg/mL (≈ 73.3 µM)
IC50 (Zymoseptoria tritici [5]): 0.22 µg/mL (≈ 0.545 µM)
IC50 (Zymoseptoria tritici [6]): 14.6 µg/mL (≈ 36.3 µM)
IC50 (Zymoseptoria tritici [7]): 0.06 µg/mL (≈ 0.149 µM)
IC50 (Zymoseptoria tritici [8]): 32.6 µg/mL (≈ 80.8 µM)
IC50 (Zymoseptoria tritici [9]): 0.01 µg/mL (≈ 0.0248 µM)
IC50 (Zymoseptoria tritici [10]): 0.1 µg/mL (≈ 0.248 µM)
IC50 (Zymoseptoria tritici [11]): 0.03 µg/mL (≈ 0.0744 µM)
IC50 (Zymoseptoria tritici [12]): 0.06 µg/mL (≈ 0.149 µM)
